Activity calls are given as the source filed them. The rule behind the calls is not given here.
How the values were obtained:
[1] = target: T1, Son of sevenless homolog 1 (Homo sapiens, UniProt Q07889); assay: Agonist activity at SOS1 in human HeLa cells expressing wild type KRAS assessed as increase in p-ERK level incubated for 30 mins by Western blot analysis; format: cell-based
T1 sequence (Q07889 whole entry): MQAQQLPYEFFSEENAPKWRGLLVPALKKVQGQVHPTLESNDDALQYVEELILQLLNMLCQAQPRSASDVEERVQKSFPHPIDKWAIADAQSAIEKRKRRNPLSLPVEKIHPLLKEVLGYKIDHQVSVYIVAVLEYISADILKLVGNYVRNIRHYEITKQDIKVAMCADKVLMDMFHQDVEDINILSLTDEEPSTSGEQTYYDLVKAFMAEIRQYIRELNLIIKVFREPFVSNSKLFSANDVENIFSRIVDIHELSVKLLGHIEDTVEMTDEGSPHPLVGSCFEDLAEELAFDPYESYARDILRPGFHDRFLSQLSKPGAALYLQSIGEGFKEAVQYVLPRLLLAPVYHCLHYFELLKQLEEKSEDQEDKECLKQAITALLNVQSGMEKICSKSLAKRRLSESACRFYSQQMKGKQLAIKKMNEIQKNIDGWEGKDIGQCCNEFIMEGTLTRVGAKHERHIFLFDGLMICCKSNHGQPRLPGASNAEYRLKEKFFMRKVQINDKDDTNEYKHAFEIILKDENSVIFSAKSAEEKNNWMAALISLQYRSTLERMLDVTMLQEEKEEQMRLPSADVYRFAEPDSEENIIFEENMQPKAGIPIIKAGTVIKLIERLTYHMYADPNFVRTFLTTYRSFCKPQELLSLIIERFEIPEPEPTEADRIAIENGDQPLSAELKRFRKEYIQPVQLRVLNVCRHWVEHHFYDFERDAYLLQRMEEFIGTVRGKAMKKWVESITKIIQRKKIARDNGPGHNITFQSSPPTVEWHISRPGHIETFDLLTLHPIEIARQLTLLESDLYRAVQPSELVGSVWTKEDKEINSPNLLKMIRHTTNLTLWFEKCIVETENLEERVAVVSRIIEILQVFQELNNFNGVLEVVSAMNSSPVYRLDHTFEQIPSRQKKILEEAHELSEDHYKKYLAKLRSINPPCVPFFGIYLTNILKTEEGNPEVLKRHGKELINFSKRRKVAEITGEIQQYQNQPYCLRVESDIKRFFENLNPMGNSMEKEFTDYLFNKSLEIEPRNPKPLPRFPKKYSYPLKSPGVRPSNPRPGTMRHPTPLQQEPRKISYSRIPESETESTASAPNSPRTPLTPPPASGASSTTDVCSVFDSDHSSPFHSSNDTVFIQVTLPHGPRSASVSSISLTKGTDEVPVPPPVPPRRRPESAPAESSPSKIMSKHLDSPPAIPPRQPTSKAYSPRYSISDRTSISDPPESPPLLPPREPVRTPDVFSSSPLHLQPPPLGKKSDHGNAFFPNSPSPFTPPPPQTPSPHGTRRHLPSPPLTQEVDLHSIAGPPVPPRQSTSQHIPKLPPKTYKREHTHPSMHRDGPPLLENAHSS

HeLa [2] = assay: Antiproliferative activity against human HeLa cells expressing wild type KRAS assessed as inhibition of cell growth incubated for 72 hrs by CCK-8 assay; format: functional, cell-based
NCI-H358 [3] = assay: Antiproliferative activity against human NCI-H358 cells expressing KRAS G12C mutant assessed as inhibition of cell growth incubated for 72 hrs by CCK-8 assay; format: functional, cell-based; details: NCI-H358, 72 h
A549 = assay: Antiproliferative activity against human A549 cells expressing KRAS G12S mutant assessed as inhibition of cell growth incubated for 72 hrs by CCK-8 assay; format: functional, cell-based; details: A549, 72 h
[4] = target: T2, Son of sevenless homolog 1 (Homo sapiens) (UniProt Q07889); assay: Binding affinity to SOS1 in human HeLa cells expressing wild type KRAS assessed as increase in thermal stability at 37 to 52 degreeC at 10 uM incubated for 1 hr by CETSA; format: cell-based
T2 sequence (whole entry): T1 sequence (Q07889 whole entry)

[5] = target: T2, Son of sevenless homolog 1 (Homo sapiens); assay: Binding affinity to SOS1 in human NCI-H358 cells expressing KRAS G12C mutant assessed as increase in thermal stability at 37 to 52 degreeC at 10 uM incubated for 1 hr by CETSA; format: cell-based
HeLa [6] = assay: Binding affinity to Pan-Ras GTPase in human HeLa cells expressing wild type KRAS assessed as increase in thermal stability at 37 to 60 degreeC at 10 uM incubated for 1 hr by CETSA; format: cell-based
NCI-H358 [7] = assay: Binding affinity to Pan-Ras GTPase in human NCI-H358 cells expressing KRAS G12C mutant assessed as increase in thermal stability at 37 to 60 degreeC at 10 uM incubated for 1 hr by CETSA; format: cell-based
[8] = target: T2, Son of sevenless homolog 1 (Homo sapiens); assay: Agonist activity at SOS1 in human HeLa cells with siRNA-mediated SOS1 knockdown assessed as activation of p-ERK1/2 at <25 uM incubated for 30 mins by immunoblot analysis; format: cell-based
[9] = target: T2, Son of sevenless homolog 1 (Homo sapiens); assay: Agonist activity at SOS1 in human HeLa cells assessed as activation of p-ERK1/2 at 3.1 to 25 uM incubated for 30 mins by immunoblot analysis; format: cell-based; details: filed as agonist, dose 3.1-25 µM
[10] = target: T2, Son of sevenless homolog 1 (Homo sapiens); assay: Agonist activity at SOS1 in human HeLa cells expressing wild type KRAS assessed as increase in ERK1/2 phosphorylation by measuring increase in RAS-GTP level incubated for 30 mins by Western blot based pull down assay; format: cell-based; details: filed as agonist, dose 0-25 µM
[11] = target: T2, Son of sevenless homolog 1 (Homo sapiens); assay: Agonist activity at SOS1 in human HeLa cells expressing wild type KRAS assessed as increase in p-ERK1/2 level at T202/Y204 residue at 0 to 12.5 uM incubated for 30 mins by Western blot analysis; format: cell-based; details: filed as agonist, dose 0-12.5 µM
[12] = target: T2, Son of sevenless homolog 1 (Homo sapiens); assay: Agonist activity at SOS1 in human HeLa cells expressing wild type KRAS assessed as increase in p-ERK1/2 level at T202/Y204 residue over 25 uM incubated for 30 mins by Western blot analysis; format: cell-based
NCI-H358 [13] = assay: Activation of RAS signaling pathway in human NCI-H358 cells expressing KRAS G12C mutant assessed as upregulation of p-ERK level incubated for 4 hrs by Western blot analysis; format: cell-based; details: filed as activator, dose 0-20 µM

| EC50 [1] [µM] | Structure (SMILES) | other results |
| --- | --- | --- |
| 9.01 | C=CC(=O)N1CC2(CC(n3nc(-c4ccc5c(cnn5C)c4)c4cc(-c5cn[nH]c5)ccc43)C2)C1 |  |
| 1.53 | C=CC(=O)N1CC2(CC(n3nc(C(=O)Nc4ccc5c(cnn5C)c4)c4cc(-c5cn[nH]c5)ccc43)C2)C1 | IC50 (HeLa [2]): 9.19 µM; IC50 (NCI-H358 [3]): 6.04 µM; IC50 (A549): 9.61 µM; Activity [4]: Active; Activity [5]: Active; Activity (HeLa [6]): inactive; Activity (NCI-H358 [7]): inactive; Activity [8]: inactive; Activity [9]: Active; Activity [10]: Active; Activity [11]: Active; Activity [12]: inactive |
| 14.2 | C=CC(=O)N1CC2(CC(n3nc(-c4ccc5c(cnn5C)c4)c4cc(-c5c[nH]nc5C)c(Cl)cc43)C2)C1 | Activity (NCI-H358 [13]): Dose-Dependent Effect |
| > 20 | Cn1ncc2cc(-c3nn(C4CC5(CNC5)C4)c4ccc(-c5cn[nH]c5)cc34)ccc21 |  |
| > 20 | C=CC(=O)N1CC2(CC(n3nc(C(=O)Nc4ccc5c(cnn5C)c4)c4ccccc43)C2)C1 |  |
| 5.45 | C=CC(=O)N1CC2(CC(n3nc(C(=O)Nc4ccc5cnn(C)c5c4)c4cc(-c5cn[nH]c5)ccc43)C2)C1 |  |

The next lines start with the molecule.

| Structure (SMILES) | EC50 [1] [µM] | other results |
| --- | --- | --- |
| CCC(=O)N1CC2(CC(n3nc(C(=O)Nc4ccc5c(cnn5C)c4)c4cc(-c5cn[nH]c5)ccc43)C2)C1 | 4.37 |  |
| C=CC(=O)N1CC2(CC(n3nc(C(=O)Nc4ccc5[nH]ncc5c4)c4cc(-c5cn[nH]c5)ccc43)C2)C1 | > 20 |  |
| Cn1cc(-c2ccc3c(c2)c(-c2ccc4c(cnn4C)c2)nn3C2CC3(CNC3)C2)cn1 | > 20 |  |
| Cn1ncc2cc(NC(=O)c3nn(C4CC5(CNC5)C4)c4ccc(-c5cn[nH]c5)cc34)ccc21 | > 20 |  |
| C=CC(=O)N1CC2(CC(n3nc(C(=O)N4CCc5cc(OC)ccc5C4)c4ccccc43)C2)C1 | > 20 |  |
| C=CC(=O)N1CC2(CC(n3nc(C(=O)N4CCCc5cc(OC)ccc54)c4ccccc43)C2)C1 | > 20 |  |
| C=CC(=O)N1CC2(CC(n3nc(C(=O)Nc4ccc5[nH]ncc5c4)c4ccccc43)C2)C1 | > 20 |  |
